Usually GI50 stands for the concentration that inhibits growth by half. One may read the IC50 as the midpoint of a concentration-inhibition curve. Read a high IC50 as weaker potency in that assay. What is called EC50 is the midpoint of the concentration-response curve. A low value points to greater potency. Broadly, the inhibition is the drop in the measured response relative to a control, in per cent. High values mean a strong effect, low ones a weak effect. By Km is commonly meant the concentration of substrate that gives half-maximal velocity.

The text below walks through data of ChEMBL document CHEMBL1135650, “Synthesis of classical and nonclassical, partially restricted, linear, tricyclic 5-deaza antifolates” (J Med Chem, 2002).

The subject of data set [1] is Panel leukemia (Carcinoma cell lines). Briefly: In vitro inhibitory activity against the growth of tumor cells in leukemia cells;Value ranges from (10e-6 to 10e-7). Format: functional. The following applies: Homo sapiens.
Data set [2] concerns the target T1, Dihydrofolate reductase (Pneumocystis carinii, UniProt P16184).
T1 sequence (P16184 whole entry): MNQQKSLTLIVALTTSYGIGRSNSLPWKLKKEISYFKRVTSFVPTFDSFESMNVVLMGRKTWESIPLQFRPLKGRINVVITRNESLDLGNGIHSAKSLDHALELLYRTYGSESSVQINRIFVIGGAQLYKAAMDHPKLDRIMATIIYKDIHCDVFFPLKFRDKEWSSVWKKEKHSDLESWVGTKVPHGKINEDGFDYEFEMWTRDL

Data set [3] concerns the target T2, Bifunctional dihydrofolate reductase-thymidylate synthase (Toxoplasma gondii, UniProt Q07422).
T2 sequence (Q07422 whole entry): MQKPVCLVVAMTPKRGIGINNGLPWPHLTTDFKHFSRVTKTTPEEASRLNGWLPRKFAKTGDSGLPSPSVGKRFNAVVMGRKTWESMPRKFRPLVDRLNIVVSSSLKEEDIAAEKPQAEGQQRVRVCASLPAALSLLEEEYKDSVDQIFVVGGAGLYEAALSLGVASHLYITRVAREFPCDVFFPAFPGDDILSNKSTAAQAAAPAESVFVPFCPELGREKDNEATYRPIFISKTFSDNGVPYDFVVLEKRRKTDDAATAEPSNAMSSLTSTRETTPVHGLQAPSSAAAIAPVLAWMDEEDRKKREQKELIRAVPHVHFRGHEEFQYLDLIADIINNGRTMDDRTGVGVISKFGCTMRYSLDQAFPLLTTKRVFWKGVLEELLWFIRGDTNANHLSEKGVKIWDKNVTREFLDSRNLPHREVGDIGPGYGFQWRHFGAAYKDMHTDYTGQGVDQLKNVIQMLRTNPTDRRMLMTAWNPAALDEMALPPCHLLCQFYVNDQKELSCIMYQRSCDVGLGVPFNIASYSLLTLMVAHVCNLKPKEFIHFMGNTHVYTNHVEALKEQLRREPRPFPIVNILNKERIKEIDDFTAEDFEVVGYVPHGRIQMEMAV

In data set [4] the target is T3, Dihydrofolate reductase (Homo sapiens, UniProt P00374).
T3 sequence (P00374 whole entry): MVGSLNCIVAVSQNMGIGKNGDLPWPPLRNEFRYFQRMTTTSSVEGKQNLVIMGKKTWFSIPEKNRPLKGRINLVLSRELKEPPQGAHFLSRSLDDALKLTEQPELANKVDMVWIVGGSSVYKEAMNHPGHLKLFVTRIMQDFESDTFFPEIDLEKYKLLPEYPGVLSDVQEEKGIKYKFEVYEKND

Data set [5] in a line: Kinetic constant Vmax relative to aminopterin. Format: ADME.
A short description of data set [6]: Concentration required to decrease cell growth by 50% in methotrexate-resistant CCRF-CEM human leukemia subline (R1). The format is functional, cell-based.
Data set [7] is described as follows: Concentration required to decrease cell growth by 50% in methotrexate-resistant CCRF-CEM human leukemia subline (R2). The format is functional, cell-based.
The nature of data set [8]: Concentration required to decrease cell growth by 50% in methotrexate-resistant CCRF-CEM human leukemia subline (R30dm). The format is functional, cell-based.
Another data set deals with CCRF-CEM. Description: Concentration required to decrease cell growth by 50% in CCRF-CEM human leukemia cell line. The format is functional, cell-based.
Data set [9] is described as follows: Selectivity ratio as the ratio of IC50 value against recombinant human (rh) DHFR to that of Escherichia coli (ec) DHFR. Format: functional.
Data set [10] is described as follows: Selectivity ratio as the ratio of IC50 value against recombinant human (rh) DHFR to that of pneumocystis carinii (pc ) DHFR. Format: functional.
A short description of data set [11]: Selectivity ratio as the ratio of IC50 value against recombinant human (rh) DHFR to that of Toxoplasma gondii (tg) DHFR. The format is functional.
Data set [12] in a line: Kinetic parameter Vmax of the compound. Format: ADME.
The target of data set [13] is T4, Dihydrofolate reductase (Pneumocystis carinii) (UniProt P16184).
T4 sequence (whole entry): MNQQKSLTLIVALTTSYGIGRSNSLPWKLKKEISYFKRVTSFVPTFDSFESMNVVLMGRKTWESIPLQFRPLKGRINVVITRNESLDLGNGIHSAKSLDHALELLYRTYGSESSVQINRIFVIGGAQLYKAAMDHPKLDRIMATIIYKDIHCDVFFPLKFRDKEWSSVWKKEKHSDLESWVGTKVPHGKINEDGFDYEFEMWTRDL
Description: Percent Inhibition activity against pneumocystis carinii Dihydrofolate reductase. Conditions: concentration not given here.

Substrate in data set [14]: Nc1nc(N)c2cc3c(nc2n1)CCN(Cc1ccc(C(=O)N[C@@H](CCC(=O)O)C(=O)O)cc1)C3
Description: (§1) Ability to act as a substrate for human folyglutamate synthetase (FPGS).

Substrate in data set [15]: Nc1nc(N)c2nc(CNc3ccc(C(=O)N[C@@H](CCC(=O)O)C(=O)O)cc3)cnc2n1
The description is as §1.

Some results are limits rather than exact numbers.

For `Nc1nc(N)c2cc3c(nc2n1)CCN(Cc1ccccc1)C3`, the GI50 in [1] worked out at 1000 nM. Also, the IC50 against Dihydrofolate reductase [2] came out at 16000 nM; in data set [3] it was 1400 nM; against Dihydrofolate reductase [4], 32000 nM.
As for `Nc1nc(N)c2cc3c(nc2n1)CCN(Cc1ccc(C(=O)N[C@@H](CCC(=O)O)C(=O)O)cc1)C3`, the Vmax rel in [5] is 1.07. This molecule came in with a GI50 in data set [1] of 1000 nM. Moreover, the EC50 in data set [6] is over 10000 nM; in data set [7] it was over 10000 nM; in data set [8], 1900 nM; in the data set on CCRF-CEM, 771 nM. For the same molecule, the values for the IC50 against Dihydrofolate reductase [2] and at Dihydrofolate reductase [4] were 1800 nM and 5400 nM, respectively.
On to `COc1cc(CN2CCc3nc4nc(N)nc(N)c4cc3C2)cc(OC)c1`, for which the IC50 was determined as 14000 nM at Dihydrofolate reductase [2], 2700 nM in [3] and 22000 nM on Dihydrofolate reductase [4].
On to `Nc1nc(N)c2cc3c(nc2n1)CCN(Cc1ccc(Cl)c(Cl)c1)C3`, for which the Ratio in data set [9] is over 8.6; in [10] it was over 5.2; in data set [11], over 5. Also, the values for the IC50 (against Dihydrofolate reductase [2]; in data set [3]; against Dihydrofolate reductase [4]) were 5000 nM, 5100 nM and over 26000 nM, respectively.
Take `CN(Cc1cnc2nc(N)nc(N)c2n1)c1ccc(C(=O)N[C@@H](CCC(=O)O)C(=O)O)cc1` [METHOTREXATE]: the Vmax in [5] was 0.82. Also, the EC50 in data set [7] was 1700 nM; in [8], 16 nM; in the data set with CCRF-CEM, 12 nM.
Turning to `Nc1nc(N)c2nc(CNc3ccc(C(=O)N[C@@H](CCC(=O)O)C(=O)O)cc3)cnc2n1` [AMINOPTERIN], the Vmax in data set [12] was 1.
Consider `Nc1nc(N)c2cc3c(nc2n1)CCN(C(=O)OCc1ccccc1)C3`, for which, in [13], the inhibition came out at 35%. Moreover, in [1], the GI50 is 1000 nM. Also, the Ratio was determined as 10 in [9] and 1.3 in data set [11]. Further, the IC50 against Dihydrofolate reductase [2] was over 15000 nM; in data set [3] it was 22000 nM; against Dihydrofolate reductase [4], 30000 nM.
Turning to `Nc1nc(N)c2cc3c(nc2n1)CCN(Cc1ccc(Cl)cc1Cl)C3`, the results for the IC50 (against Dihydrofolate reductase [2]; in data set [3]; at Dihydrofolate reductase [4]) were 4000 nM, 2100 nM and 1300 nM, respectively.
For `COc1ccc(CN2CCc3nc4nc(N)nc(N)c4cc3C2)cc1`, in data set [13], the inhibition came to 35%. In addition, the IC50 at Dihydrofolate reductase [2] was over 15000 nM; in data set [3], 2900 nM; on Dihydrofolate reductase [4], 27000 nM.

B1: Folylpolyglutamate synthase, mitochondrial (Homo sapiens), Q05932 (protein)
chain: MSRARSHLRAALFLAAASARGITTQVAARRGLSAWPVPQEPSMEYQDAVRMLNTLQTNAGYLEQVKRQRGDPQTQLEAMELYLARSGLQVEDLDRLNIIHVTGTKGKGSTCAFTECILRSYGLKTGFFSSPHLVQVRERIRINGQPISPELFTKYFWRLYHRLEETKDGSCVSMPPYFRFLTLMAFHVFLQEKVDLAVVEVGIGGAYDCTNIIRKPVVCGVSSLGIDHTSLLGDTVEKIAWQKGGIFKQGVPAFTVLQPEGPLAVLRDRAQQISCPLYLCPMLEALEEGGPPLTLGLEGEHQRSNAALALQLAHCWLQRQDRHGAGEPKASRPGLLWQLPLAPVFQPTSHMRLGLRNTEWPGRTQVLRRGPLTWYLDGAHTASSAQACVRWFRQALQGRERPSGGPEVRVLLFNATGDRDPAALLKLLQPCQFDYAVFCPNLTEVSSTGNADQQNFTVTLDQVLLRCLEHQQHWNHLDEEQASPDLWSAPSPEPGGSASLLLAPHPPHTCSASSLVFSCISHALQWISQGRDPIFQPPSPPKGLLTHPVAHSGASILREAAAIHVLVTGSLHLVGGVLKLLEPALSQ
As for B1, the Km in data set [14] was found to be 27.3 µM; in data set [15], 2.15 µM.
